Test results taken from paper PMC11595864, “Design, Synthesis, and Evaluation of Novel Thiazole-Containing Algicides Inspired by Bacillamide A” (Marine Drugs, 2024).
≈ marks a conversion by molar mass, not a printed value. Where two headings read alike, the source gives them in different places. Blank lines part the entries; values can stand above or below the compound they belong to.

Assays:
S. costatum [1] = assay: ROS level (DCFH-DA fluorescent probe assay); assay type: cell-based, Skeletonema costatum; conditions: 10 mg/L, 72 h
Procedure: (§1) P. minimum, S. costatum, and A. pacificum cells were cultured in F/2 medium. All flasks were cultivated under 12 h of light: 12 h of dark and 70 μmol m^−2 s^−1 at 20 ± 1 °C. […] Finally, the algal cells were collected and diluted in 6 mL of phosphate buffer (pH = 7.8). A small amount of quartz sand was added into the algal cells under ice bath. The obtained homogenate was next poured into a centrifuge tube and centrifuged at 5000 r/min for 25 min at 4 °C. The obtained supernatant was placed in the refrigerator at 4 °C for the next step experiment.
(§2) The reactive oxygen species (ROS) assay kit was purchased from SolarBio Co., Ltd., Beijing, China. The 2′,7′-dichlorodihydrofluorescein diacetate (DCFH-DA) could be oxidized by reactive oxygen or nitrogen species (ROS/RNS) to generate high fluorescent 2′,7′-dichlorofluoroscein (DCF). DCF could be detected by Cyto-FLEX flow cytometry.

P. minimum [2] = assay: ROS level (DCFH-DA fluorescent probe assay); assay type: cell-based, Prorocentrum minimum; conditions: 10 mg/L, 72 h
Procedure: as §1, §2

S. costatum [3] = assay: Algicidal activity assay, EC50; assay type: cell-based, Skeletonema costatum; conditions: for EC50: Skeletonema costatum, read-out: EC50 S. costatum
Procedure: (§3) P. minimum, A. pacificum, and S. costatum were purchased from Guangyu Biological Technology Co., Ltd. (Shanghai, China). The algae strain was cultured in F/2 medium ((12 h light: 12 h dark cycle), 20 ± 1 °C, 70 μmol m^−2 s^−1). Purchased algae were transferred to sterile conical flasks for culture; after the algae proliferation was stabilized, the expanded culture was next carried out following standard conditions.
(§4) Copper sulfate and Diuron were used as the positive controls. EC50 values were calculated according to the equation of the quantity–effect relationship in Equation (2) using the Hill model of Graph Pad Prism software (8.0.2). (2) Y=Bottom+(Top-Bottom)/1+10^(Log EC50-X)×Hill Slope
(§5) The X and Y values represent the concentration (mg/L) and response values of the control and experimental groups, respectively. The Top, Bottom, and Hill Slope represent the maximum response, minimum response, and the curve slope, respectively. The EC50 represents half of the maximum effective concentration.

P. minimum [4] = assay: Algicidal activity assay, EC50; assay type: cell-based, Prorocentrum minimum; conditions: for EC50: Prorocentrum minimum, read-out: EC50 P. minimum
Procedure: as §3, §4, §5

A. pacificum [5] = assay: Algicidal activity assay, EC50; assay type: cell-based, Alexandrium pacificum; conditions: Mean ± SD, n = 3; for EC50: Alexandrium pacificum
Procedure: as §3, §4, §5

zebrafish = assay: Zebrafish acute toxicity assay; assay type: in vivo; conditions: zebrafish
Procedure: Zebrafish acute toxicity of bacillamide A and synthesized BDs were evaluated at 0.1 mg/L, 1 mg/L, and 10 mg/L, respectively. Diuron and CuSO4 were used as positive controls. The commercial zebrafish (body length > 3.0 cm) were domesticated in aerated tap water for 24 h, fed once daily for seven consecutive days, and stopped being fed before the experiment.
4. Acute toxicity table S1.
Compound Concentration Survival percent Acute
aAccording to the Guide for Environmental Safety Assessment of Chemical Pesticides
4 groups and treated with different compounds for 96 h.

A. pacificum [6] = assay: Growth-inhibition rate measurement at 50 mg/L, 24 h; assay type: cell-based, Alexandrium pacificum; conditions: for inhibition at 50 µg/mL: Alexandrium pacificum, read-out: inhibition rate against A. pacificum
Procedure: as §3
(§6) The stock solutions of bacillamide A and different BDs were prepared in dimethyl sulfoxide (DMSO) with the requisition amount. […] The controls received the same volume of DMSO. The inhibitory activities of bacillamide A, different BDs, and positive controls were screened by 96 well microtiter plates at different concentrations. Inhibition ratios (IRs) of cupric sulfate (50 mg/L, positive control), bacillamide A (50 mg/L), and BDs (50 mg/L) were calculated on algae using Equation (1). (1) IR=Cc0-Cex/Cc0×100%
(§7) The CC0 and Cex, respectively, represent the algal densities of the control and experimental groups.

P. minimum [7] = assay: as above; assay type: cell-based, Prorocentrum minimum
Procedure: as §3, §6, §7

melting point: 122 to 123 °C
Compound: O=C(NCCc1c[nH]c2ccccc12)c1csc(-c2ccccc2[N+](=O)[O-])n1 [Compound 6b]

Compound: O=S(=O)([O-])[O-].[Cu+2] [CuSO4, cupric sulfate anhydrous, reference compound]
increase of ROS levels in S. costatum (S. costatum [1]): 7.7 fold
increase of ROS levels in P. minimum (P. minimum [2]): 9.6 fold
EC50 S. costatum (S. costatum [3]; Mean ± SD, n = 3): 3.12 ± 0.21 µg/mL
EC50 P. minimum (P. minimum [4]; Mean ± SD, n = 3): 3.61 ± 0.32 µg/mL
EC50 A. pacificum (A. pacificum [5]): 2.34 ± 0.06 µg/mL
Survival percent (zebrafish; 0.1 mg/L, 0h): 100
Survival percent (zebrafish; 0.1 mg/L, 24h): 100
Survival percent (zebrafish; 0.1 mg/L, 48h): 80
Survival percent (zebrafish; 0.1 mg/L, 72h): 73
Survival percent (zebrafish; 0.1 mg/L, 96h): 73
Survival percent (zebrafish; 1 mg/L, 0h): 100
Survival percent (zebrafish; 1 mg/L, 24h): 50
Survival percent (zebrafish; 1 mg/L, 48h): 50
Survival percent (zebrafish; 1 mg/L, 72h): 43
Survival percent (zebrafish; 1 mg/L, 96h): 43
Survival percent (zebrafish; 10 mg/L, 0h): 100
Survival percent (zebrafish; 10 mg/L, 24h): 0
Survival percent (zebrafish; 10 mg/L, 48h): 0
Survival percent (zebrafish; 10 mg/L, 72h): 0
Survival percent (zebrafish; 10 mg/L, 96h): 0

Compound: CN(C)CCNC(=O)c1csc(-c2ccccc2)n1 [Compound 7d]
EC50 (S. costatum [3]; Mean ± SD, n = 3): 0.77 ± 0.21 µg/mL (≈ 2.8 µM)
EC50 (P. minimum [4]; Mean ± SD, n = 3): 3.22 ± 0.39 µg/mL (≈ 11.7 µM)
inhibition at 50 µg/mL (A. pacificum [6]): 70 to 95%
EC50 (A. pacificum [5]): 2.02 ± 0.54 µg/mL (≈ 7.34 µM)

Compound: CN(C)C(=O)Nc1ccc(Cl)c(Cl)c1 [Diuron, reference compound]
EC50 (S. costatum [3]): 4.32 ± 0.14 µg/mL (≈ 18.5 µM)
EC50 (P. minimum [4]): 4.72 ± 0.41 µg/mL (≈ 20.2 µM)
EC50 (A. pacificum [5]): 5.69 ± 0.46 µg/mL (≈ 24.4 µM)

Compound: CC(C)(C)OC(=O)NCCNC(=O)c1csc(-c2ccccc2)n1 [Compound 7f]
melting point: 162 to 163 °C
inhibition rate against P. minimum (P. minimum [7]): lost most of its algicidal activity
inhibition rate against A. pacificum (A. pacificum [6]): lost most of its algicidal activity

Compound: O=C(Nc1ccccc1)c1csc(-c2ccccc2)n1 [Compound 7e]
EC50 (S. costatum [3]; Mean ± SD, n = 3): 1.1 ± 0.31 µg/mL (≈ 3.92 µM)
EC50 (P. minimum [4]; Mean ± SD, n = 3): 3.23 ± 0.39 µg/mL (≈ 11.5 µM)
inhibition at 50 µg/mL (A. pacificum [6]): 70 to 95%
EC50 (A. pacificum [5]): 0.69 ± 0.07 µg/mL (≈ 2.46 µM)

Compound: NCCNC(=O)c1csc(-c2ccccc2)n1 [Compound 7g]
melting point: 173 to 174 °C
inhibition at 50 µg/mL (P. minimum [7]; Prorocentrum minimum, read-out: inhibition rate against P. minimum): 76.9%
EC50 (S. costatum [3]; Mean ± SD, n = 3): 2.28 ± 0.37 µg/mL (≈ 9.22 µM)
EC50 (P. minimum [4]; Mean ± SD, n = 3): 2.02 ± 0.27 µg/mL (≈ 8.17 µM)
EC50 (A. pacificum [5]): 3.42 ± 0.13 µg/mL (≈ 13.8 µM)
